In patent publication US20250215029A1 (Recludix Pharma, Inc., priority 2022, published 2025):

Assays:
[1] = molecular target: T1, Recombinant STAT3 protein (STAT3 (G127-I722)) (Homo sapiens, UniProt P40763); assay: STAT3 Fluorescence Polarization (FP) Assay; format: binding; conditions: STAT3 (G127-I722) 25 nM, probe 5-FAM-GpYLPQTV-NH2 2 nM, 45-minute incubation; read-out: STAT3 (FP assay IC50 class)
T1 construct: Recombinant STAT3 protein (STAT3 (G127-I722))
Outline: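 Displacement of a 2 nM 5-FAM-labelled pY peptide (GpYLPQTV) from 25 nM recombinant STAT3 (G127-I722) was monitored by fluorescence polarization. Incubation lasted 45 min at room temperature in pH 7.4 HEPES buffer containing 1% DMSO.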

[2] = molecular target: T2, Recombinant STAT6 protein (STAT6 (W123-T658)) (Homo sapiens, UniProt P42226); assay: STAT6 Fluorescence Polarization (FP) Assay; format: binding; conditions: STAT6 (W123-T658) 250 nM, probe 5-FAM-Ap[…]-NH2 2 nM, 45-minute incubation; read-out: STAT6 (FP assay IC50 class)
T2 construct: Recombinant STAT6 protein (STAT6 (W123-T658))
T2 sequence (P42226 123-658): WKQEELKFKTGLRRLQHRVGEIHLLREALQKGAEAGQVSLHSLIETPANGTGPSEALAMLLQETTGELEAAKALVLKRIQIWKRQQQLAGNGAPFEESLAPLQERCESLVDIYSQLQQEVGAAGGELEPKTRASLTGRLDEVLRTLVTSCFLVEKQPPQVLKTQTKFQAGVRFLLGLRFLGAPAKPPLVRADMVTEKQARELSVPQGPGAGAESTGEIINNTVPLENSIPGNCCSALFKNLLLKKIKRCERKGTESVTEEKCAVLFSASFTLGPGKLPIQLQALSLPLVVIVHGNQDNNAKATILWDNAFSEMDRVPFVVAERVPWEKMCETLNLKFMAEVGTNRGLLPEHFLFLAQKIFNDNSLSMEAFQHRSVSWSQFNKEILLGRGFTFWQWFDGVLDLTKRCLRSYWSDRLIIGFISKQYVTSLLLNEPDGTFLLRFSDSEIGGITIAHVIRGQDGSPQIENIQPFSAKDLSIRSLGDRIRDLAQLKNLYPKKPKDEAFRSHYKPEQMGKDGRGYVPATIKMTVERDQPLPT
Outline: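 Serially diluted compounds received a premix of STAT6 (W123-T658, 250 nM) and 5-FAM peptide probe (2 nM) in pH 7.4 HEPES buffer containing DTT and Tween 20. Following 45 min at room temperature, FP was recorded. IC50s were fitted by nonlinear regression; values are binned A (≤300 nM), B (>300-3000 nM), C (>3-30 μM), D (>30 μM).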

T1 sequence (P40763 127-722): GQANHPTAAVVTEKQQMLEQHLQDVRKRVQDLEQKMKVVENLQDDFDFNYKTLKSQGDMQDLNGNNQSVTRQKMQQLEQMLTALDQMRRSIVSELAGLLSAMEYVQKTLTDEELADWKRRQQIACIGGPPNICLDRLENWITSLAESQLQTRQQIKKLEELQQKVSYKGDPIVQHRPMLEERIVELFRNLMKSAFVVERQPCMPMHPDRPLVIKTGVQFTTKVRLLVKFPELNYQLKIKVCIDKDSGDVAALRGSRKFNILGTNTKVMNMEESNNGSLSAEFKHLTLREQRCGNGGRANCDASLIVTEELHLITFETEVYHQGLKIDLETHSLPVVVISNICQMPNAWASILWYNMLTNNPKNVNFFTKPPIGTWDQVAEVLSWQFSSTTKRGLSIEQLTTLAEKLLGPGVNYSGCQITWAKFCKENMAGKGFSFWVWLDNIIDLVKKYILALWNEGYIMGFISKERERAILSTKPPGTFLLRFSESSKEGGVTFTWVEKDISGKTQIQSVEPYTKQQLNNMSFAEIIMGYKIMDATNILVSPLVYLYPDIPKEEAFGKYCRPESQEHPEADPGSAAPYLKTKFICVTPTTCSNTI

| Compound | IC50 [1] | IC50 [2] |
| --- | --- | --- |
| O=C(N[C@H]1CCCC[C@H]2CC[C@@H](C(=O)N3CC(c4cncc(-c5ccccc5)c4)C3)N2C1=O)c1cc2cc(C(F)(F)P(=O)(O)O)ccc2s1 [Compound 518, (difluoro(2-(((3S,6S,10aS)-5-oxo-3-(3-(5-phenylpyridin-3-yl)azetidine-1-carbonyl)decahydropyrrolo[1,2-a]azocin-6-yl)carbamoyl)benzo[b]thiophen-5-yl)methyl)phosphonic acid] | 0.1 to 1 µM | 3 to 30 µM |
| O=C(N[C@H]1CCC[C@H]2CC[C@@H](C(=O)N3CC(c4cnccc4Cl)C3)N2C1=O)c1cc2cc(CP(=O)(O)O)ccc2s1 [Compound 519, ((2-(((3S,6S,9aS)-3-(3-(4-chloropyridin-3-yl)azetidine-1-carbonyl)-5-oxooctahydro-1H-pyrrolo[1,2-a]azepin-6-yl)carbamoyl)benzo[b]thiophen-5-yl)methyl)phosphonic acid] | 1 to 10 µM | 3 to 30 µM |
| O=C(N[C@H]1CCCC[C@H]2CC[C@@H](C(=O)NCc3cnc4[nH]cnc4c3)N2C1=O)c1cc2cc(C(F)P(=O)(O)O)ccc2s1 (stereo partly drawn) [Compound 521, ((2-(((3S,6S,10aS)-3-(((3H-imidazo[4,5-b]pyridin-6-yl)methyl)carbamoyl)-5-oxodecahydropyrrolo[1,2-a]azocin-6-yl)carbamoyl)benzo[b]thiophen-5-yl)fluoromethyl)phosphonic acid] | < 0.1 µM | 3 to 30 µM |
| COC(=O)N1CC[C@@H](NC(=O)[C@@H]2CC[C@@H]3CCCC[C@H](NC(=O)c4cc5cc(C(F)P(=O)(O)O)ccc5s4)C(=O)N32)C1 (stereo partly drawn) [Compound 522, (fluoro(2-(((3S,6S,10aS)-3-(((R)-1-(methoxycarbonyl)pyrrolidin-3-yl)carbamoyl)-5-oxodecahydropyrrolo[1,2-a]azocin-6-yl)carbamoyl)benzo[b]thiophen-5-yl)methyl)phosphonic acid] | 1 to 10 µM | 0.3 to 3 µM |
| CN(C)C(=O)N1CC[C@@H](NC(=O)[C@@H]2CC[C@@H]3CCCC[C@H](NC(=O)c4cc5cc(C(F)P(=O)(O)O)ccc5s4)C(=O)N32)C1 (stereo partly drawn) [Compound 529, ((2-(((3S,6S,10aS)-3-(((R)-1-(dimethylcarbamoyl)pyrrolidin-3-yl)carbamoyl)-5-oxodecahydropyrrolo[1,2-a]azocin-6-yl)carbamoyl)benzo[b]thiophen-5-yl)fluoromethyl)phosphonic acid] | 0.1 to 1 µM | 3 to 30 µM |
| CNC(=O)N1CC[C@@H](NC(=O)[C@@H]2CC[C@@H]3CCCC[C@H](NC(=O)c4cc5cc(C(F)P(=O)(O)O)ccc5s4)C(=O)N32)C1 (stereo partly drawn) [Compound 530, (fluoro(2-(((3S,6S,10aS)-3-(((R)-1-(methylcarbamoyl)pyrrolidin-3-yl)carbamoyl)-5-oxodecahydropyrrolo[1,2-a]azocin-6-yl)carbamoyl)benzo[b]thiophen-5-yl)methyl)phosphonic acid] | 0.1 to 1 µM | 3 to 30 µM |
| NC(=O)N1CC[C@@H](NC(=O)[C@@H]2CC[C@@H]3CCCC[C@H](NC(=O)c4cc5cc(C(F)P(=O)(O)O)ccc5s4)C(=O)N32)C1 (stereo partly drawn) [Compound 532, ((2-(((3S,6S,10aS)-3-(((R)-1-carbamoylpyrrolidin-3-yl)carbamoyl)-5-oxodecahydropyrrolo[1,2-a]azocin-6-yl)carbamoyl)benzo[b]thiophen-5-yl)fluoromethyl)phosphonic acid] | < 0.1 µM | 3 to 30 µM |
| Cn1ccc(N2CC[C@@H](NC(=O)[C@@H]3CC[C@@H]4CCCC[C@H](NC(=O)c5cc6cc(C(F)P(=O)(O)O)ccc6s5)C(=O)N43)C2)n1 (stereo partly drawn) [Compound 533, (fluoro(2-(((3S,6S,10aS)-3-(((R)-1-(1-methyl-1H-pyrazol-3-yl)pyrrolidin-3-yl)carbamoyl)-5-oxodecahydropyrrolo[1,2-a]azocin-6-yl)carbamoyl)benzo[b]thiophen-5-yl)methyl)phosphonic acid] | 1 to 10 µM | 0.3 to 3 µM |

Results, then the compound that gave them:

| IC50 [1] | IC50 [2] | Compound |
| --- | --- | --- |
| 1 to 10 µM | 3 to 30 µM | N#Cc1ccncc1C1CN(C(=O)[C@@H]2CC[C@@H]3CCC[C@H](NC(=O)c4cc5cc(CP(=O)(O)O)ccc5s4)C(=O)N32)C1 [Compound 520, ((2-(((3S,6S,9aS)-3-(3-(4-cyanopyridin-3-yl)azetidine-1-carbonyl)-5-oxooctahydro-1H-pyrrolo[1,2-a]azepin-6-yl)carbamoyl)benzo[b]thiophen-5-yl)methyl)phosphonic acid] |
| 1 to 10 µM | 3 to 30 µM | COC(=O)N1CC(NC(=O)[C@@H]2CC[C@@H]3CCCC[C@H](NC(=O)c4cc5cc(C(F)P(=O)(O)O)ccc5s4)C(=O)N32)C1 (some centres unmarked) [Compound 523] |
| 0.1 to 1 µM | 0.3 to 3 µM | O=C(N[C@H]1CCCC[C@H]2CC[C@@H](C(=O)NC3CN(C(=O)OCc4ccccc4)C3)N2C1=O)c1cc2cc(C(F)P(=O)(O)O)ccc2s1 (stereo partly drawn) [Compound 524, ((2-(((3S,6S,10aS)-3-((1-((benzyloxy)carbonyl)azetidin-3-yl)carbamoyl)-5-oxodecahydropyrrolo[1,2-a]azocin-6-yl)carbamoyl)benzo[b]thiophen-5-yl)fluoromethyl)phosphonic acid] |
| 1 to 10 µM | 0.3 to 3 µM | COC(=O)N1C[C@H](NC(=O)[C@@H]2CC[C@@H]3CCCC[C@H](NC(=O)c4cc5cc(C(F)P(=O)(O)O)ccc5s4)C(=O)N32)[C@@H](F)C1 (stereo partly drawn) [Compound 525, (fluoro(2-(((3S,6S,10aS)-3-(((3S,4S)-4-fluoro-1-(methoxycarbonyl)pyrrolidin-3-yl)carbamoyl)-5-oxodecahydropyrrolo[1,2-a]azocin-6-yl)carbamoyl)benzo[b]thiophen-5-yl)methyl)phosphonic acid] |
| < 0.1 µM | 3 to 30 µM | N#Cc1cccc(C2CN(C(=O)[C@@H]3CC[C@@H]4CCC[C@H](NC(=O)c5cc6cc(C(F)P(=O)(O)O)ccc6s5)C(=O)N43)C2)n1 (some centres unmarked) [Compound 526] |
| 1 to 10 µM | 0.3 to 3 µM | O=C(N[C@H]1CCCC[C@H]2CC[C@@H](C(=O)N[C@@H]3CCN(C(=O)OC4CC4)C3)N2C1=O)c1cc2cc(C(F)P(=O)(O)O)ccc2s1 (stereo partly drawn) [Compound 527, ((2-(((3S,6S,10aS)-3-(((R)-1-(cyclopropoxycarbonyl)pyrrolidin-3-yl)carbamoyl)-5-oxodecahydropyrrolo[1,2-a]azocin-6-yl)carbamoyl)benzo[b]thiophen-5-yl)fluoromethyl)phosphonic acid] |
| 1 to 10 µM | 0.3 to 3 µM | O=C(N[C@H]1CCCC[C@H]2CC[C@@H](C(=O)NC3CN(C(=O)OC4CC4)C3)N2C1=O)c1cc2cc(C(F)P(=O)(O)O)ccc2s1 (stereo partly drawn) [Compound 528, ((2-(((3S,6S,10aS)-3-((1-(cyclopropoxycarbonyl)azetidin-3-yl)carbamoyl)-5-oxodecahydropyrrolo[1,2-a]azocin-6-yl)carbamoyl)benzo[b]thiophen-5-yl)fluoromethyl)phosphonic acid] |
| 1 to 10 µM | 3 to 30 µM | O=C(N[C@H]1CCC[C@H]2CC[C@@H](C(=O)N[C@@H]3CC[C@H](O)C3)N2C1=O)c1cc2cc(C(F)P(=O)(O)O)ccc2s1 (stereo partly drawn) [Compound 531, (fluoro(2-(((3S,6S,9aS)-3-(((1R,3S)-3-hydroxycyclopentyl)carbamoyl)-5-oxooctahydro-1H-pyrrolo[1,2-a]azepin-6-yl)carbamoyl)benzo[b]thiophen-5-yl)methyl)phosphonic acid] |
